Measurements as given in paper PMC5108032, “Discovery of a Quinoline-4-carboxamide Derivative with a Novel Mechanism of Action, Multistage Antimalarial Activity, and Potent in Vivo Efficacy” (Journal of Medicinal Chemistry, 2016).
Values belong to the molecule of their own block, whether it stands above or below them.

Experiments:
[1] = Oral maximum tolerated dose; conditions: in vivo, 300 mg/kg
[2] = Mammalian cell growth inhibition counter-screen (resazurin); format: cell-based, human; conditions: human, MRC-5 cells (normal diploid human fibroblasts)
Procedure: Plasmodium falciparum screening
Assays against P. falciparum were conducted as previously described.1 Cultures of the widely-used malaria reference strain of chloroquine-sensitive Plasmodium falciparum strain 3D7 were maintained in a 5% suspension of human red blood cells (obtained from East of Scotland Blood Transfusion Service, Ninewells Hospital, Dundee) cultured in RPMI 1640 medium (pH 7.3) supplemented with 0.5% Albumax II (Gibco Life Technologies, San Diego, CA), 12 mM sodium bicarbonate, 0.2 mM hypoxanthine and 20 mg/L gentamicin at 37°C, in a humidified atmosphere of 1% O 2, 3% CO2 with a balance of nitrogen. Growth inhibition was quantified using a fluorescence assay utilising the binding of SYBR green to double stranded DNA, which emits a fluorescent signal at 528 nm after excitation at 485nm.2 Mefloquine (potency range 30-60 nM) was used as a drug control to monitor the quality of the assay (Z’ = 0.6 to 0.8, Signal to background >3, where Z’ is a measure of the discrimination between the positive and negative controls on a screen plate). A 96-well [3H]-Hypoxanthine incorporation assay was also developed as a secondary assay in order to validate compounds from the initial screen in an orthogonal platform.3 Compound bioactivity from both assays was expressed as […]
P. falciparum (panel of resistant strains) in vitro assay. (Swiss TPH)
All Plasmodium strains were cultured according to Trager and Jensen and are described at www.beiresources.org (resistant strains: K1, W2, 7G8, TM90C2A, D6 and V1/S, sensitive strain:
NF54). EC50 values were determined in vitro by measuring incorporation of the nucleic acid precursor […]
Mammalian Cell Growth Inhibition assay
A counter-screen against normal diploid human fibroblasts (MRC-5 cell line) was carried out to exclude non-selective, and toxic compounds. The assay was essentially carried out as described previously.4 Cells were plated and incubated overnight to allow them to adhere as monolayers. A working stock of each test compound was transferred to an intermediate 384-well plate and pre-diluted with minimum essential media (MEM). The pre-diluted stocks were then transferred onto the cell monolayers, and the plates were incubated for 68 h. Resazurin, to a final concentration of 50 μM, was added to each well, after which plates were incubated for a further 3 h and measured for fluorescence (λex=528 nm, λem=590 nm)
In vitro Cell Assay Data Analysis.
All data was processed using IDBS ActivityBase® raw data was converted into per cent inhibition through linear regression by setting the high inhibition control as 100% and the no inhibition control as 0%. Quality control criteria for passing plates were as follows: Z’> 0.5, S:B> 3, %CV(no inhibition < 15 . The formula used to calculate Z’ is 1 3× (St D e v _ hi gh + St D e v _ low) . […]
All EC50 Curve fitting was undertaken using XLFit version 4.2 using Model 205 with the following 4 parametric equation: y = A + B A A + ($-&) ,where A=% inhibition at bottom, B=% […]
inhibition at top, C= EC50, D= slope, x= inhibitor concentration and y= % inhibition. […]
reach 100% of inhibition, B was fixed to 100 only when at least 50% of inhibition was reached.
Plasmodium falciparum late stage (IV-V) gametocyte high content imaging assay Plasmodium falciparum NF54-pfs16-LUC-GFP stage IV-V Gametocytes were produced as described previously.5 Compounds were solubilized in DMSO and serially diluted in three concentrations per log standard curves in DM SO. One µl of compound was subsequently diluted in 25µl of water (4% DMSO) and 5µl transferred into the base of 384 well PerkinElmer CellCarrier plates. Forty-five µl of stage IV-V gametocytes (10%P in 0.1%H) were added to the imaging plates which were in turn sealed with a gas permeable membrane and incubated at 37°C, 5% CO 2, 5% O2, 90% N2 and 60% humidity […]
Post incubation, 5µl of MitoTracker® Red CM -H2Xros (MTR) solution (0.66ug/ml) was added to all wells and the plates incubated for a further 16hours. […]

[3] = Parallel artificial membrane permeability assay (PAMPA); format: in vitro ADME; conditions: relative to the earlier lead

SMILES: O=C(NCCN1CCCC1)c1cc(NCCCN2CCOCC2)nc2ccc(F)cc12 [Compound 25, 6-Fluoro-2-((3-morpholinopropyl)amino)-N-(2-(pyrrolidin-1-yl)ethyl)quinoline-4-carboxamide]
MTD at 4 days [1]: > 300 mg/kg

SMILES: O=C(NCCN1CCCC1)c1cc(-c2ccc(CN3CCOCC3)cc2Cl)nc2ccc(F)cc12 [Compound 42, 2-(2-Chloro-4-(morpholinomethyl)phenyl)-6-fluoro-N-(2-(pyrrolidin-1-yl)ethyl)quinoline-4-carboxamide]
EC50 at 68 h [2]: > 50 µM

increase in permeability [3]: more than 20 fold
SMILES: O=C(NCCN1CCCC1)c1cc(NCCC2CCOCC2)nc2ccc(Cl)cc12 [Compound 30, 6-Chloro-N-(2-(pyrrolidin-1-yl)ethyl)-2-((2-(tetrahydro-2H-pyran-4-yl)ethyl)amino)quinoline-4-carboxamide]
